We go through 13 compounds from US20250170130A1, “MODULATORS OF MYC FAMILY PROTO-ONCOGENE PROTEIN” (Nalo Therapeutics, priority 2022, published 2025).

In one test the target is T1, MycN (Homo sapiens, UniProt P04198).
T1 construct: endogenous in cells; host or cells: SK-N-BE(2)
T1 sequence (P04198 1-464): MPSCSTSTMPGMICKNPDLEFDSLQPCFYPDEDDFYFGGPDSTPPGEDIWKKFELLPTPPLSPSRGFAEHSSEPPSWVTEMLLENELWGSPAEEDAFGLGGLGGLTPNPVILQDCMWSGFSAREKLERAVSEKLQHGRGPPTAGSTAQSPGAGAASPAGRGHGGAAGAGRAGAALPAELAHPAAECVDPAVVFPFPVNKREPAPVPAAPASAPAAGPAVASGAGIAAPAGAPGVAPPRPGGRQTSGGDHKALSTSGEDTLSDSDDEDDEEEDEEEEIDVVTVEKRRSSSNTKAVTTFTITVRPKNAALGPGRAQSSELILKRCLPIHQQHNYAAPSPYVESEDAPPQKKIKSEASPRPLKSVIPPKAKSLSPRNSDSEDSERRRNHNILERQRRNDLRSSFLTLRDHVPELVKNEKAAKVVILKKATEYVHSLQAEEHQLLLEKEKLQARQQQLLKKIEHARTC
In words: Degradation of MycN protein in SK-N-BE(2) cells, JESS/Western blot of lysates. Type of test: cell-based. The following applies: SKNBE2 cells, 24 h; for Dmax at 1 µM / Dmax at 3 µM / Dmax at 6 µM / Dmax at 0.5 µM: SKNBE2, 24 h; for Dmax at 1 µM: read-out: % Degradation of MycN (SKNBE2) 24 h, 1 μM; for Dmax at 3 µM: read-out: % Degradation of MycN (SKNBE2) 24 h, 3 μM; for Dmax at 6 µM: read-out: % Degradation of MycN (SKNBE2) 24 h, 6 μM; for Dmax at 0.5 µM: read-out: % Degradation of MycN (SKNBE2) 24 h, 0.5 μM. As to the method: (§1) For L363 cells (suspension), 1E6 cells were plated into each well of a 6 well plate. For SK-N-BE(2) cells (adherent), 5E5 cells were plated into each well of a 6 well dish. Cells were cultured for 24 hrs then treated with exemplary compounds at 0.1, 0.5, 1.0, 3.0 and 6.0 mM final assay concentrations plus DMSO control. All compounds were diluted to 10 mM in DMSO. Cells were treated with the compound for 24 hrs, then for both cell types, media containing cells were removed from wells into a 15 ml centrifuge tube, and remaining adherent SK-N-BE(2) cells were also scraped from the wells into the appropriate tubes. Tubes were centrifuged, cells were washed with PBS then re-centrifuged to pellet cells. A RIPA buffer cocktail was added to the cells on ice for 5 mins. Cell lysates were clarified by centrifugation and stored at −80 degrees until required. BCA assay was performed on each lysate to determine the protein concentration.
(§2) Once an appropriate lysate concentration and antibody concentration was determined, samples were screened in the JESS technology (Protein Simple, San Jose, CA—https://www.proteinsimple.com/jess.html).
(§3) Target protein antibodies (n-myc and c-myc) were detected in the chemi-luminescence channel and loading controls (tubulin and GAPDH) were detected using a Near Infra Red (NIR) labeled secondary antibody.
For SK-N-EB2 adherent cells, 5E5 cells in 1.9 mls media were plated into 6 well dishes and incubated for 24 hrs. Exemplary compounds were added (100 ul, 1 in 20 dilution in media) to each well (final assay concentration 6, 3, 1 and […]) together with DMSO control wells and incubated for 24 hrs. Cells were scrapped off the plate, centrifuged, washed with PBS, centrifuged, then a RIPA buffer cocktail added to the cells (100 ul), centrifuged and stored at −80 for later analysis. For L363 suspension cells, 1E6 cells were plated into 24 well dishes (950 ul media) and incubated for 24 hrs. Exemplary compounds were added (50 ul, 1 in 20 dilution in media) to each well (final assay concentration 6, 3, 1 and […]) together with DMSO control wells and incubated for 24 hrs. Cells were aspirated into tubes, centrifuged, washed with PBS, centrifuged, then a RIPA buffer cocktail added to the cells (100 ul), centrifuged and stored at −80 for later analysis.
(§4) For Western blot, a BCA (total protein) assay was run on all samples, these were then run in batches of 5 compounds plus control (DMSO) on each Western blot run—n-myc and c-myc were run in separate experiments in the chemiluminescence channel. Both tubulin and GAPDH were run as loading controls in all lanes in the near infra red channel.
In general terms: In western blotting, separated proteins are transferred to a membrane and probed.

The target of the next test is T2, MycC (Homo sapiens, UniProt P01106).
T2 construct: endogenous in cells; host or cells: L363
T2 sequence (P01106 whole entry): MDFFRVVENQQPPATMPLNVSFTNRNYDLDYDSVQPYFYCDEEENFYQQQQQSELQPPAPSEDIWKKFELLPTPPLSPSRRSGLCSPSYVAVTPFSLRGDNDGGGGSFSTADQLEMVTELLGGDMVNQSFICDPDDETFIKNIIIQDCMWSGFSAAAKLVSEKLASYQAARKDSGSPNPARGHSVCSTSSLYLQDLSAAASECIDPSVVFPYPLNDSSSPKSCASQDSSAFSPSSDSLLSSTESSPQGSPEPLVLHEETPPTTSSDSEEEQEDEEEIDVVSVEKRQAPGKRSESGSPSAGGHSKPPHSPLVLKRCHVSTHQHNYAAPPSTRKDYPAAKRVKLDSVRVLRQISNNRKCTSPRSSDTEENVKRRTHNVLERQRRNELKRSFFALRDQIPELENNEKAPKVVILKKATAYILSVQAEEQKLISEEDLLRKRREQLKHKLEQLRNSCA
In words: Degradation of MycC protein in L363 cells, JESS/Western blot of lysates. In kind it is cell-based. Conditions: L-363 cells, 24 h; for Dmax at 1 µM / Dmax at 0.5 µM / Dmax at 3 µM / Dmax at 6 µM: L-363, 24 h; for Dmax at 1 µM: read-out: % Degradation of MycC (L-363) 24 h, 1 μM; for Dmax at 0.5 µM: read-out: % Degradation of MycC (L-363) 24 h, 0.5 μM; for Dmax at 3 µM: read-out: % Degradation of MycC (L-363) 24 h, 3 μM; for Dmax at 6 µM: read-out: % Degradation of MycC (L-363) 24 h, 6 μM. As to the method:
as §1, with “Cells were cultured for 24 hrs then treated with exemplary compounds at 0.1, 0.5, 1.0, 3.0 and 6.0 mM final assay concentrations plus DMSO control.” left out
as §2, §3
For SK-N-EB2 adherent cells, 5E5 cells in 1.9 mls media were plated into 6 well dishes and incubated for 24 hrs. […] Cells were scrapped off the plate, centrifuged, washed with PBS, centrifuged, then a RIPA buffer cocktail added to the cells (100 ul), centrifuged and stored at −80 for later analysis. For L363 suspension cells, 1E6 cells were plated into […] (950 ul media) and incubated for 24 hrs. […] Cells were aspirated into tubes, centrifuged, washed with PBS, centrifuged, then a RIPA buffer cocktail added to the cells (100 ul), centrifuged and stored at −80 for later analysis.
as §4

As to `c1cc(Nc2cc(C3CC3)[nH]n2)nc(N2CCC(C3CNC3)C2)n1` (racemic) [Compound 39, (±)-2-[3-(azetidin-3-yl)pyrrolidin-1-yl]-N-(5-cyclopropyl-1H-pyrazol-3-yl)pyrimidin-4-amine], at MycN, the Dmax at 1 µM is less than 20%, the Dmax at 3 µM was in the range of 20 to 49% and the Dmax at 6 µM fell in the range of 20 to 49%. In addition, the Dmax at 1 µM on MycC lay within 20 to 49%.
Consider `c1cc(Nc2cc(C3CC3)[nH]n2)nc(N2C[C@H]3CNC[C@@H]3C2)n1` (racemic) [Compound 50, N-(5-Cyclopropyl-1H-pyrazol-3-yl)-2-[rac-(3aR,6aR)-2,3,3a,4,6,6a-hexahydro-1H-pyrrolo[3,4-c]pyrrol-5-yl]pyrimidin-4-amine], for which, at MycN, the Dmax at 0.5 µM was 20 to 49%, the Dmax at 1 µM fell in the range of 20 to 49%, the Dmax at 3 µM lay within 50 to 79% and the Dmax at 6 µM lay within 80 to 100%. The Dmax at 0.5 µM at MycC (0.5 μM) was in the range of 20 to 49%. In addition, at MycC, the Dmax at 1 µM is less than 20% and the Dmax at 3 µM lay in the range of 20 to 49%. The Dmax at 6 µM on MycC (6 μM) is 50 to 79%.
With `CC(N)C1CCCN(c2nccc(Nc3cc(C4CC4)[nH]n3)n2)C1` (single isomer, unassigned) [Compound 159, 2-[3-(1-Aminoethyl)-1-piperidyl]-N-(5-cyclopropyl-1H-pyrazol-3-yl)pyrimidin-4-amine], on MycN, the Dmax at 6 µM fell in the range of 80 to 100% and the “% Degradation of MycN (SKNBE2) 24 h, 6 μM” value is listed as “**** (degradation 80-100%)”. Further, at MycC (0.5 μM), the Dmax at 0.5 µM fell in the range of 20 to 49% and the “% Degradation of MycC (L-363) 24 h, 0.5 μM” value was “** (degradation 20-49%)”. In addition, at MycC (6 μM), the Dmax at 6 µM was 80 to 100% and the “% Degradation of MycC (L-363) 24 h, 6 μM” value is “**** (degradation 80-100%)”.
Consider `CNC(C)C1CCCN(c2nccc(Nc3cc(C4CC4)[nH]n3)n2)C1` (single isomer, unassigned) [Compound 162, N-(5-Cyclopropyl-1H-pyrazol-3-yl)-2-[3-[1-(methylamino)ethyl]-1-piperidyl]pyrimidin-4-amine], for which, on MycN, the Dmax at 0.5 µM lay within 20 to 49%; the Dmax at 1 µM is 20 to 49%; the Dmax at 6 µM lay within 80 to 100%; the “% Degradation of MycN (SKNBE2) 24 h, 6 μM” value is listed as “**** (degradation 80-100%)”. The Dmax at 0.5 µM on MycC (0.5 μM) lay in the range of 20 to 49%. Moreover, on MycC, the Dmax at 1 µM lay in the range of 20 to 49% and the Dmax at 3 µM lay within 20 to 49%.
With `CN(C)C[C@H]1CCN(c2nccc(Nc3cc(C4CC4)[nH]n3)n2)C1` (stereo in doubt) [Compound 32, N-(5-cyclopropyl-1H-pyrazol-3-yl)-2-[rac-(3R)-3-[(dimethylamino)methyl]pyrrolidin-1-yl]pyrimidin-4-amine], on MycN, the Dmax at 0.5 µM fell in the range of 20 to 49%, the Dmax at 1 µM is 20 to 49%, the Dmax at 3 µM fell in the range of 50 to 79% and the Dmax at 6 µM lay in the range of 50 to 79%. At MycC, the Dmax at 1 µM was less than 20%. Further, the Dmax at 6 µM on MycC (6 μM) is less than 20%.
Consider `CN(C)C[C@@H]1CCN(c2nccc(Nc3cc(C4CC4)[nH]n3)n2)C1` (stereo in doubt) [Compound 33, N-(5-Cyclopropyl-1H-pyrazol-3-yl)-2-[rac-(3S)-3-[(dimethylamino)methyl]pyrrolidin-1-yl]pyrimidin-4-amine], for which, at MycN, the Dmax at 0.5 µM lay in the range of 20 to 49%, the Dmax at 1 µM lay within 20 to 49%, the Dmax at 3 µM lay within 50 to 79% and the Dmax at 6 µM is 50 to 79%.
Consider `CNC1CC2(C1)CN(c1nccc(Nc3cc(C4CC4)[nH]n3)n1)C2` [Compound 1, 2-(4-((5-cyclopropyl-1H-pyrazol-3-yl)amino)pyrimidin-2-yl)-N-methyl-2-azaspiro[3.3]heptan-6-amine], for which, at MycN, the Dmax at 3 µM was less than 20% and the Dmax at 6 µM was in the range of 50 to 79%. In addition, the Dmax at 6 µM at MycC (6 μM) lay within 20 to 49%.
As for `CNCCCNc1nccc(Nc2cc(C3CC3)[nH]n2)n1` [Compound 34, N^4-(5-cyclopropyl-1H-pyrazol-3-yl)-N^2-[3-(methylamino)propyl]pyrimidine-2,4-diamine], the Dmax at 6 µM on MycN is less than 20%.
With `CN1CC(C2CN(c3nccc(Nc4cc(C5CC5)[nH]n4)n3)C2)C1` [Compound 46, N-(5-Cyclopropyl-1H-pyrazol-3-yl)-2-[3-(1-methylazetidin-3-yl)azetidin-1-yl]pyrimidin-4-amine], on MycN, the Dmax at 6 µM is less than 20%.
Still for that read-out and setting: the result for `CN1C[C@@H]2CN(c3nccc(Nc4cc(C5CC5)[nH]n4)n3)C[C@@H]21` [Compound 52, N-(5-cyclopropyl-1H-pyrazol-3-yl)-2-[(1R,5R)-6-methyl-3,6-diazabicyclo[3.2.0]heptan-3-yl]pyrimidin-4-amine] reads less than 20%.
`OC1CN(CC23CC(C2)N(c2nccc(Nc4cc(C5CCCC5)[nH]n4)n2)C3)C1` [Compound 70]: at MycN, the Dmax at 1 µM is less than 20% and the Dmax at 6 µM fell in the range of 20 to 49%.
Take `CS(=O)(=O)CCCNCC12CC(C1)N(c1nccc(Nc3cc(C4CCCC4)[nH]n3)n1)C2` [Compound 74, N-(5-Cyclopentyl-1H-pyrazol-3-yl)-2-[4-[(3-methylsulfonylpropylamino)methyl]-2-azabicyclo[2.1.1]hexan-2-yl]pyrimidin-4-amine]: on MycN, the Dmax at 0.5 µM was 20 to 49%, the Dmax at 1 µM is 20 to 49%, the Dmax at 3 µM fell in the range of 50 to 79% and the Dmax at 6 µM fell in the range of 80 to 100%.
For the compound `CNC[C@H]1CN(c2nccc(Nc3cc(C4CCCC4)[nH]n3)n2)CCO1` [Compound 190, N-(5-Cyclopentyl-1H-pyrazol-3-yl)-2-[(2S)-2-(methylaminomethyl)morpholin-4-yl]pyrimidin-4-amine], at MycN, the Dmax at 0.5 µM lay within 20 to 49%, the Dmax at 1 µM lay within 20 to 49%, the Dmax at 3 µM fell in the range of 50 to 79% and the Dmax at 6 µM lay within 50 to 79%.
